Source: patent US10420341B2, “Herbicidal phenylpyrimidines” (BASF SE, priority 2015, dated 2019)

Experiments:
[1] = system: ALOMY; experiment: greenhouse pre-emergence herbicidal test; type: in vivo, Alopercurus myosuroides; conditions: pre-emergence method, application rate 500 g/ha, scale from 0 to 100
Description: The seeds of the test plants were sown separately for each species. For the pre-emergence treatment, the active ingredients, which had been suspended or emulsified in water, were applied directly after sowing by means of finely distributing nozzles. The containers were irrigated gently to promote germination and growth and subsequently covered with transparent plastic hoods until the plants had rooted. This cover caused uniform germination of the test plants, unless this had been impaired by the active ingredients. Depending on the species, the plants were kept at 10-25° C. or 20-35° C., respectively. The test period extended over 2 to 4 weeks. During this time, the plants were tended, and their response to the individual treatments was evaluated. Evaluation was carried out using a scale from 0 to 100. 100 means no emergence of the plants, or complete destruction of at least the aerial moieties, and 0 means no damage, or normal course of growth. […] The plants used in the greenhouse experiments were of the following species: [table]

[2] = system: APESV; experiment: greenhouse pre-emergence herbicidal test; type: in vivo, Apera spica-venti; conditions: pre-emergence method, application rate 500 g/ha, scale from 0 to 100
How it was run: (§1)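 Species-dependent temperatures of 10-25° C. or 20-35° C. were maintained for a 2 to 4 week test after pre-emergence nozzle application of compounds dispersed in water. Efficacy was scored 0-100, with 100 denoting no emergence or total aerial destruction.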

[3] = system: ECHCG; experiment: greenhouse pre-emergence herbicidal test; type: in vivo, Echinocloa crus-galli; conditions: pre-emergence method, application rate 500 g/ha, scale from 0 to 100
How it was run: as §1

[4] = system: AMARE; experiment: greenhouse post-emergence herbicidal test; type: in vivo, Amaranthus retroflexus; conditions: post-emergence method, application rate 500 g/ha, scale from 0 to 100
How it was run: (§2)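 Greenhouse plants, grown to 3–15 cm, were treated post-emergence with emulsified or suspended compound and assessed over 2–4 weeks on a 0–100 damage scale.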

[5] = system: ALOMY; experiment: greenhouse post-emergence herbicidal test; type: in vivo, Alopercurus myosuroides; conditions: post-emergence method, application rate 500 g/ha, scale from 0 to 100
How it was run: as §2

[6] = system: POLCO; experiment: greenhouse post-emergence herbicidal test; type: in vivo, Polygonum convolvulus; conditions: post-emergence method, application rate 500 g/ha, scale from 0 to 100
How it was run: as §2

[7] = system: AVEFA; experiment: greenhouse post-emergence herbicidal test; type: in vivo, Avena fatua; conditions: post-emergence method, application rate 500 g/ha, scale from 0 to 100
How it was run: as §2

[8] = system: ECHCG; experiment: greenhouse post-emergence herbicidal test; type: in vivo, Echinocloa crus-galli; conditions: post-emergence method, application rate 500 g/ha, scale from 0 to 100
How it was run: as §2

| SMILES | herbicidal activity against ALOMY [1] | herbicidal activity against APESV [2] | herbicidal activity against ECHCG [3] | herbicidal activity against AMARE [4] | herbicidal activity against ALOMY [5] | herbicidal activity against POLCO [6] | herbicidal activity against AVEFA [7] | herbicidal activity against ECHCG [8] |
| --- | --- | --- | --- | --- | --- | --- | --- | --- |
| O=C(O)c1nc(C2CC2)ncc1-c1ccccc1Br [example 152] | good (A good herbicidal activity is given at values of at least 70) | very good (a very good herbicidal activity is given at values of at least 85) | very good (a very good herbicidal activity is given at values of at least 85) | good (A good herbicidal activity is given at values of at least 70) | – | – | – | – |
| COC(=O)c1nc(C2CC2)ncc1-c1ccccc1Cl [example 201] | very good (a very good herbicidal activity is given at values of at least 85) | very good (a very good herbicidal activity is given at values of at least 85) | very good (a very good herbicidal activity is given at values of at least 85) | – | very good (a very good herbicidal activity is given at values of at least 85) | very good (a very good herbicidal activity is given at values of at least 85) | – | – |
| COC(=O)C(C)(C)SC(=O)c1nc(C2CC2)ncc1-c1ccccc1Cl [example 283] | very good (a very good herbicidal activity is given at values of at least 85) | very good (a very good herbicidal activity is given at values of at least 85) | – | – | – | very good (a very good herbicidal activity is given at values of at least 85) | very good (a very good herbicidal activity is given at values of at least 85) | – |
| COC(=O)c1nc(C2CC2)ncc1-c1ccccc1Br [example 213] | very good (a very good herbicidal activity is given at values of at least 85) | very good (a very good herbicidal activity is given at values of at least 85) | very good (a very good herbicidal activity is given at values of at least 85) | – | good (A good herbicidal activity is given at values of at least 70) | – | – | good (A good herbicidal activity is given at values of at least 70) |
| COC(=O)c1nc(C2CC2)ncc1-c1cc(F)ccc1C [example 226] | very good (a very good herbicidal activity is given at values of at least 85) | good (A good herbicidal activity is given at values of at least 70) | very good (a very good herbicidal activity is given at values of at least 85) | – | very good (a very good herbicidal activity is given at values of at least 85) | very good (a very good herbicidal activity is given at values of at least 85) | – | – |
| O=C(O)c1nc(C2CC2)ncc1-c1ccccc1F [example 132] | very good (a very good herbicidal activity is given at values of at least 85) | very good (a very good herbicidal activity is given at values of at least 85) | very good (a very good herbicidal activity is given at values of at least 85) | – | very good (a very good herbicidal activity is given at values of at least 85) | – | – | very good (a very good herbicidal activity is given at values of at least 85) |
| COC(=O)c1nc(C2CC2)ncc1-c1cc(Cl)ccc1C [example 227] | very good (a very good herbicidal activity is given at values of at least 85) | very good (a very good herbicidal activity is given at values of at least 85) | very good (a very good herbicidal activity is given at values of at least 85) | – | very good (a very good herbicidal activity is given at values of at least 85) | – | – | very good (a very good herbicidal activity is given at values of at least 85) |
| O=C(O)c1nc(C2CC2)ncc1-c1cc(F)ccc1Cl [example 142] | very good (a very good herbicidal activity is given at values of at least 85) | very good (a very good herbicidal activity is given at values of at least 85) | very good (a very good herbicidal activity is given at values of at least 85) | – | very good (a very good herbicidal activity is given at values of at least 85) | – | – | very good (a very good herbicidal activity is given at values of at least 85) |
| COC(=O)c1nc(C2CC2)ncc1-c1ccccc1F [example 190] | very good (a very good herbicidal activity is given at values of at least 85) | very good (a very good herbicidal activity is given at values of at least 85) | very good (a very good herbicidal activity is given at values of at least 85) | – | – | good (A good herbicidal activity is given at values of at least 70) | – | – |
| COC(=O)c1nc(C2CC2)ncc1-c1cc(C)ccc1Cl [example 205] | good (A good herbicidal activity is given at values of at least 70) | very good (a very good herbicidal activity is given at values of at least 85) | very good (a very good herbicidal activity is given at values of at least 85) | – | good (A good herbicidal activity is given at values of at least 70) | – | – | very good (a very good herbicidal activity is given at values of at least 85) |
| O=C(O)c1nc(C2CC2)ncc1-c1c(Cl)cc(F)cc1Cl [example 147] | very good (a very good herbicidal activity is given at values of at least 85) | very good (a very good herbicidal activity is given at values of at least 85) | – | – | very good (a very good herbicidal activity is given at values of at least 85) | very good (a very good herbicidal activity is given at values of at least 85) | – | – |
| COC(=O)c1nc(C2CC2)ncc1-c1cc(C)c(F)cc1C [example 230] | good (A good herbicidal activity is given at values of at least 70) | very good (a very good herbicidal activity is given at values of at least 85) | very good (a very good herbicidal activity is given at values of at least 85) | – | good (A good herbicidal activity is given at values of at least 70) | – | – | very good (a very good herbicidal activity is given at values of at least 85) |
| Cc1ccc(Cl)cc1-c1cnc(C2CC2)nc1C(=O)O [example 164] | very good (a very good herbicidal activity is given at values of at least 85) | very good (a very good herbicidal activity is given at values of at least 85) | very good (a very good herbicidal activity is given at values of at least 85) | – | – | very good (a very good herbicidal activity is given at values of at least 85) | – | very good (a very good herbicidal activity is given at values of at least 85) |
